Values joined by “and” are separate entries in the source; they are usually repeats but may differ in a detail not shown here. Identical values can stand only once.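 Following 48 hours of exposure in 96-well plates, responses at five concentrations were used to interpolate endpoints linearly. GI50 = concentration required for 50% inhibition of growth. At the TGI there is no net growth.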
Legend:
Test in all cases: NCI tumour cell line growth inhibition, 48 h
786-0 renal = test system: 786-0 renal
A498 renal = test system: A498 renal
A549 NSCLC = test system: A549 NSCLC
ACHN renal = test system: ACHN renal
CAKI-1 renal = test system: CAKI-1 renal
CCRF-CEM leukemia = test system: CCRF-CEM leukemia
COLO 205 colon = test system: COLO 205 colon
DLD-1 colon = test system: DLD-1 colon
DMS 114 small cell lung = test system: DMS 114 small cell lung
DMS 273 small cell lung = test system: DMS 273 small cell lung
EKVX NSCLC = test system: EKVX NSCLC
HCC-2998 colon = test system: HCC-2998 colon
HCT-116 colon = test system: HCT-116 colon
HCT-15 colon = test system: HCT-15 colon
HL-60(TB) leukemia = test system: HL-60(TB) leukemia
HOP-62 NSCLC = test system: HOP-62 NSCLC
HOP-92 NSCLC = test system: HOP-92 NSCLC
HT29 colon = test system: HT29 colon
IGROV1 ovarian = test system: IGROV1 ovarian
K-562 leukemia = test system: K-562 leukemia
KM12 colon = test system: KM12 colon
KM20L2 colon = test system: KM20L2 colon
LOX IMVI melanoma = test system: LOX IMVI melanoma
LXFL 529 NSCLC = test system: LXFL 529 NSCLC
M14 melanoma = test system: M14 melanoma
M19-MEL melanoma = test system: M19-MEL melanoma
MALME-3M melanoma = test system: MALME-3M melanoma
MOLT-4 leukemia = test system: MOLT-4 leukemia
NCI-H226 lung = test system: NCI-H226 lung
NCI-H23 lung = test system: NCI-H23 lung
NCI-H460 lung = test system: NCI-H460 lung
NCI-H522 lung = test system: NCI-H522 lung
OVCAR-3 ovarian = test system: OVCAR-3 ovarian
OVCAR-4 ovarian = test system: OVCAR-4 ovarian
OVCAR-5 ovarian = test system: OVCAR-5 ovarian
OVCAR-8 ovarian = test system: OVCAR-8 ovarian
RPMI-8226 leukemia = test system: RPMI-8226 leukemia
RXF 393 renal = test system: RXF 393 renal
SF-268 CNS = test system: SF-268 CNS
SF-295 CNS = test system: SF-295 CNS
SF-539 CNS = test system: SF-539 CNS
SK-MEL-2 melanoma = test system: SK-MEL-2 melanoma
SK-MEL-28 melanoma = test system: SK-MEL-28 melanoma
SK-MEL-5 melanoma = test system: SK-MEL-5 melanoma
SK-OV-3 ovarian = test system: SK-OV-3 ovarian
SN12C renal = test system: SN12C renal
SNB-19 CNS = test system: SNB-19 CNS
SNB-75 CNS = test system: SNB-75 CNS
SNB-78 CNS = test system: SNB-78 CNS
SW-620 colon = test system: SW-620 colon
TK-10 renal = test system: TK-10 renal
U251 CNS = test system: U251 CNS
UACC-257 melanoma = test system: UACC-257 melanoma
UACC-62 melanoma = test system: UACC-62 melanoma
UO-31 renal = test system: UO-31 renal
XF 498 CNS = test system: XF 498 CNS

## CC1(O)CC2C(CC1SCc1ccccc1)C2(C)C (centres undefined)
786-0 renal
  TGI: 42.7 µM and 29.3 µM
A498 renal
  TGI: 57.9 µM and 32.5 µM
A549 NSCLC
  GI50: 40.9 µM and 17.4 µM
  TGI: > 100 µM and 31.1 µM
ACHN renal
  TGI: 34.5 µM and 30.4 µM
CAKI-1 renal
  TGI: 32 µM and 25.2 µM
CCRF-CEM leukemia
  GI50: 37.4 µM and 14.8 µM
  TGI: > 100 µM and 42.2 µM
COLO 205 colon
  TGI: 35.6 µM and 30.6 µM
DLD-1 colon
  GI50: 42.4 µM and 16.6 µM
  TGI: > 100 µM and 30.2 µM
DMS 114 small cell lung
  TGI: 33.1 µM
DMS 273 small cell lung
  TGI: 33.1 µM and 29.2 µM
EKVX NSCLC
  TGI: 77.3 µM and 31.7 µM
HCC-2998 colon
  GI50: 24.1 µM and > 100 µM
  TGI: 50 µM and > 100 µM
HCT-116 colon
  TGI: 47.9 µM and 30.2 µM
HCT-15 colon
  TGI: 65 µM and 30.6 µM
HL-60(TB) leukemia
  GI50: 28.3 µM and 10.2 µM
  TGI: > 100 µM and 33.8 µM
HOP-62 NSCLC
  TGI: 57.9 µM and 30.5 µM
HOP-92 NSCLC
  TGI: 66.4 µM and 14.4 µM
HT29 colon
  TGI: 49.1 µM and 29.9 µM
IGROV1 ovarian
  GI50: 38.8 µM and 15.4 µM
  TGI: > 100 µM and 28.9 µM
K-562 leukemia
  GI50: 33.3 µM and 12.3 µM
  TGI: > 100 µM and 32.1 µM
KM12 colon
  TGI: 50.8 µM and 34.6 µM
KM20L2 colon
  TGI: 59.4 µM and 35.9 µM
LOX IMVI melanoma
  TGI: 29.3 µM and 31.5 µM
LXFL 529 NSCLC
  GI50: 38.6 µM and 14.8 µM
  TGI: > 100 µM and 28.1 µM
M14 melanoma
  TGI: 87.2 µM and 28.9 µM
M19-MEL melanoma
  GI50: 26.2 µM and > 100 µM
  TGI: 57.8 µM and > 100 µM
MALME-3M melanoma
  TGI: 44.1 µM and 30.4 µM
MOLT-4 leukemia
  GI50: 4.09 µM and 18.4 µM
  TGI: 25.1 µM and 47.7 µM
NCI-H226 lung
  TGI: 42.5 µM and 30.1 µM
NCI-H23 lung
  TGI: 58.5 µM and 27.4 µM
NCI-H460 lung
  TGI: 57.8 µM and 27.7 µM
NCI-H522 lung
  TGI: 29.1 µM and 25.2 µM
OVCAR-3 ovarian
  TGI: 33.6 µM and 25.2 µM
OVCAR-4 ovarian
  GI50: 52.8 µM and 15.6 µM
  TGI: > 100 µM and 29.3 µM
OVCAR-5 ovarian
  TGI: 40.4 µM and 31.8 µM
OVCAR-8 ovarian
  TGI: > 100 µM and 30.9 µM
RPMI-8226 leukemia
  TGI: 44.9 µM and 51.1 µM
RXF 393 renal
  TGI: 35.6 µM and 28.6 µM
SF-268 CNS
  TGI: 54.9 µM and 42 µM
SF-295 CNS
  TGI: 43.4 µM
SF-539 CNS
  TGI: 60.2 µM and 33.4 µM
SK-MEL-2 melanoma
  TGI: 33.3 µM and 26.1 µM
SK-MEL-28 melanoma
  TGI: > 100 µM and 35.4 µM
SK-MEL-5 melanoma
  TGI: 40.4 µM and 25.8 µM
SK-OV-3 ovarian
  GI50: 37.5 µM and 15.7 µM
  TGI: > 100 µM and 29.2 µM
SN12C renal
  TGI: 43 µM and 29.5 µM
SNB-19 CNS
  GI50: 45.2 µM and 16.7 µM
  TGI: > 100 µM and 30.7 µM
SNB-75 CNS
  GI50: 33.8 µM and 15.3 µM
  TGI: 92.4 µM and 28.6 µM
SNB-78 CNS
  GI50: 76.7 µM and 17.9 µM
  TGI: > 100 µM and 34.9 µM
SW-620 colon
  TGI: 46.8 µM and 32.9 µM
TK-10 renal
  GI50: 57.1 µM and 19.9 µM
  TGI: > 100 µM and 34.1 µM
U251 CNS
  TGI: 44.7 µM and 29.7 µM
UACC-257 melanoma
  GI50: 26.2 µM and 12 µM
  TGI: 59.5 µM and 24.7 µM
UACC-62 melanoma
  TGI: 92.3 µM and 33.4 µM
UO-31 renal
  GI50: 31.2 µM and 14.5 µM
  TGI: > 100 µM and 27.9 µM
XF 498 CNS
  TGI: 32.9 µM and 37.4 µM

From PubChem BioAssay (NCI)
